From paper PMC10838953

How the values were obtained:
S6K1 = S6K1 (Homo sapiens, UniProt P23443); test: biochemical; conditions: read-out: %Ctrl @ 2000nM
CK2 in 786-O cells [1] = conditions: read-out: IC50 CK2 activity in cell extracts
ROCK1 = ROCK1 (Homo sapiens, UniProt Q13464); test: biochemical; conditions: read-out: %Ctrl @ 2000nM
BMX = BMX (Homo sapiens, UniProt P51813); test: biochemical; conditions: read-out: %Ctrl @ 2000nM
MTOR = MTOR (Homo sapiens, UniProt P42345); test: biochemical; conditions: read-out: %Ctrl @ 2000nM
EPHA7 = EPHA7 (Homo sapiens, UniProt Q15375); test: biochemical; conditions: read-out: %Ctrl @ 2000nM
HCK = HCK (Homo sapiens, UniProt P08631); test: biochemical; conditions: read-out: %Ctrl @ 2000nM
YSK1 = YSK1 (Homo sapiens, UniProt O00506); test: biochemical; conditions: read-out: %Ctrl @ 2000nM
Sequence of YSK1 (O00506 whole entry): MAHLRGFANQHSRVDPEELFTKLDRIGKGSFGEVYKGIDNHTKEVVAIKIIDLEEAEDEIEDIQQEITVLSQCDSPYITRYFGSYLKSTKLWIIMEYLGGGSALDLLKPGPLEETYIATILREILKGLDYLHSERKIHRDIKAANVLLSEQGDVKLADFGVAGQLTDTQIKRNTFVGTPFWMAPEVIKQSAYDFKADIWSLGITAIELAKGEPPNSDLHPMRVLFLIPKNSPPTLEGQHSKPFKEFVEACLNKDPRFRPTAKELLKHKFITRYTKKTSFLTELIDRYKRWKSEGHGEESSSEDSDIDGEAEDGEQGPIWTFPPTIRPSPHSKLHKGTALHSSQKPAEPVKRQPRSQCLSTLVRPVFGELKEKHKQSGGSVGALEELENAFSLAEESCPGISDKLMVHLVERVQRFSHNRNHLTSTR

CDKL1 = CDKL1 (Homo sapiens, UniProt Q00532); test: biochemical; conditions: read-out: %Ctrl @ 2000nM
CLK3 = CLK3 (Homo sapiens, UniProt P49761); test: biochemical; conditions: read-out: %Ctrl @ 2000nM
IRAK1 = IRAK1 (Homo sapiens, UniProt P51617); test: biochemical; conditions: read-out: %Ctrl @ 2000nM
PYK2 = PYK2 (Homo sapiens, UniProt Q14289); test: biochemical; conditions: read-out: %Ctrl @ 2000nM
MYO3A = MYO3A (Homo sapiens, UniProt Q8NEV4); test: biochemical; conditions: read-out: %Ctrl @ 2000nM
Sequence of MYO3A (Q8NEV4 whole entry): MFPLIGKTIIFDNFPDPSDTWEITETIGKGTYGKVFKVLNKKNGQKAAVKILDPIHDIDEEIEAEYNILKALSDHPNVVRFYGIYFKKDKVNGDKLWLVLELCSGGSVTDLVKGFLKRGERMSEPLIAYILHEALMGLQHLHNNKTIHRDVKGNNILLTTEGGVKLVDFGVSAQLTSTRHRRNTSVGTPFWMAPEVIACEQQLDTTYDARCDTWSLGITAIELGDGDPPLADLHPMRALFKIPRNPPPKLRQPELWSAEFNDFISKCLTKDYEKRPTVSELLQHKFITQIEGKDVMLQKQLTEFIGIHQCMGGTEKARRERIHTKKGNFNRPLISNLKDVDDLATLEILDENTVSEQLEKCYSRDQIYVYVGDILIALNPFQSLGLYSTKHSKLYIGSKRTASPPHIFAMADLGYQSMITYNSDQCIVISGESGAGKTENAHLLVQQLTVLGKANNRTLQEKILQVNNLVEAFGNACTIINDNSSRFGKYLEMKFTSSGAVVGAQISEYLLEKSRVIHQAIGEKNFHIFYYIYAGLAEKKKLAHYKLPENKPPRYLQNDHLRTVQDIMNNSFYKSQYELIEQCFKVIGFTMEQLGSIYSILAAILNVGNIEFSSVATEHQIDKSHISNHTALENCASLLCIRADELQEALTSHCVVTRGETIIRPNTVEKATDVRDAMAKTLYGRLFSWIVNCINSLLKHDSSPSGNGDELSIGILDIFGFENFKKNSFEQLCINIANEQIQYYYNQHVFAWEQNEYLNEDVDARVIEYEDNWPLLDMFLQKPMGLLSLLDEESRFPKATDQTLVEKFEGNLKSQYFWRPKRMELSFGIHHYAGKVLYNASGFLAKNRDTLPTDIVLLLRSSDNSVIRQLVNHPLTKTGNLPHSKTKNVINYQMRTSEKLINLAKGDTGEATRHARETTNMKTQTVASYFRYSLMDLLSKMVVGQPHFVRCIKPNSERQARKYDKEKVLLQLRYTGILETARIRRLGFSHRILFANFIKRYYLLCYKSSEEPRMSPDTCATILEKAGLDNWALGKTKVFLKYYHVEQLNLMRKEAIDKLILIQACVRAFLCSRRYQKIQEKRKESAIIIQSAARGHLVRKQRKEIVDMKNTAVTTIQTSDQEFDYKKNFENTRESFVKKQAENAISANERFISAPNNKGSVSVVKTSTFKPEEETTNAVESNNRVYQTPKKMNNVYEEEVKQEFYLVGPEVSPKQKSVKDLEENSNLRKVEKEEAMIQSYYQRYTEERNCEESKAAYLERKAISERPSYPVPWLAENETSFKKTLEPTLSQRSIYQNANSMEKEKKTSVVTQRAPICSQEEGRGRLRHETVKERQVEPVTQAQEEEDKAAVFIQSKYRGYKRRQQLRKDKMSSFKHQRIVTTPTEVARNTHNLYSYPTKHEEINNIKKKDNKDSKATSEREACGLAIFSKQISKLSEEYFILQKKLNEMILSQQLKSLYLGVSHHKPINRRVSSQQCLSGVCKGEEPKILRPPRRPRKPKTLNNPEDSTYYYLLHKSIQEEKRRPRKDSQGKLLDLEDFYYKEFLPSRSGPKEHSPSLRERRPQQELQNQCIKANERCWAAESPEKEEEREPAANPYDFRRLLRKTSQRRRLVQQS

SRPK3 = SRPK3 (Homo sapiens, UniProt Q9UPE1); test: biochemical; conditions: read-out: %Ctrl @ 2000nM
Sequence of SRPK3 (Q9UPE1 whole entry): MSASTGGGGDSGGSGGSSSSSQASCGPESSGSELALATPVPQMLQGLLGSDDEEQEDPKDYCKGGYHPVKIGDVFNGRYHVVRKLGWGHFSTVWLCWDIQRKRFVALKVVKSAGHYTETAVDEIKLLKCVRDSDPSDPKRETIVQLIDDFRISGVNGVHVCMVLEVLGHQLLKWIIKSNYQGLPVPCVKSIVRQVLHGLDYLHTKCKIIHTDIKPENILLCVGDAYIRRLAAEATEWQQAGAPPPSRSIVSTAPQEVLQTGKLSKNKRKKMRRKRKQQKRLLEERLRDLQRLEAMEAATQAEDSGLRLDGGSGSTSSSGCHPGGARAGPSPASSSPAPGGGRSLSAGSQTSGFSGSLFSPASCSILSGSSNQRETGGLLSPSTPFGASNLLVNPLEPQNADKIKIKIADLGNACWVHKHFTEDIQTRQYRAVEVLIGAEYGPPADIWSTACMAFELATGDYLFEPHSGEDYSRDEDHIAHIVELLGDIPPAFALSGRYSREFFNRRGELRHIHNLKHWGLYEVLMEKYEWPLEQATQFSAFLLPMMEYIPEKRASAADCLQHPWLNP

ROS1 = ROS1 (Homo sapiens, UniProt P08922); test: biochemical; conditions: read-out: %Ctrl @ 2000nM
ZAK = ZAK (Homo sapiens, UniProt Q9NYL2); test: biochemical; conditions: read-out: %Ctrl @ 2000nM
[2] = biological target: RPS6KA5(Kin.Dom.2-C-terminal) (Homo sapiens, UniProt O75582); test: biochemical
Sequence of RPS6KA5(Kin.Dom.2-C-terminal) (O75582 388-802 limits assumed): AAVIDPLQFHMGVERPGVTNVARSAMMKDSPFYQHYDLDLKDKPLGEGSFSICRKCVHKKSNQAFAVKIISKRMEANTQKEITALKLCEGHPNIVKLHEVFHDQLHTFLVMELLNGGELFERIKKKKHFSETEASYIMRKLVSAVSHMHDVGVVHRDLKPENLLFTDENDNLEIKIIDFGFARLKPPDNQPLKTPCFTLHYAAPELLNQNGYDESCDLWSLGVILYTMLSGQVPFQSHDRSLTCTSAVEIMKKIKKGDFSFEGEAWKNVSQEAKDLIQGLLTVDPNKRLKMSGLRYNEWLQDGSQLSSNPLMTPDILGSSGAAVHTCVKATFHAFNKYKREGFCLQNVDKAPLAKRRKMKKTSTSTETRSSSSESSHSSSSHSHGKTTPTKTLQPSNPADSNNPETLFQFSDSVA

[3] = biological target: JAK3(JH1domain-catalytic) (Homo sapiens, UniProt P52333); test: biochemical; conditions: read-out: %Ctrl @ 2000nM
TTK = TTK (Homo sapiens, UniProt P33981); test: biochemical; conditions: read-out: %Ctrl @ 2000nM
AAK1 = AAK1 (Homo sapiens, UniProt Q2M2I8); test: biochemical; conditions: read-out: %Ctrl @ 2000nM
CDK4-cyclinD3 = CDK4-cyclinD3 (Homo sapiens, UniProt P11802); test: biochemical; conditions: read-out: %Ctrl @ 2000nM
A375 cells = conditions: 4 μM, 48 h
ABL2 = ABL2 (Homo sapiens, UniProt P42684); test: biochemical; conditions: read-out: %Ctrl @ 2000nM
FRK = FRK (Homo sapiens, UniProt P42685); test: biochemical; conditions: read-out: %Ctrl @ 2000nM
NEK11 = NEK11 (Homo sapiens, UniProt Q8NG66); test: biochemical; conditions: read-out: %Ctrl @ 2000nM
Sequence of NEK11 (Q8NG66 whole entry): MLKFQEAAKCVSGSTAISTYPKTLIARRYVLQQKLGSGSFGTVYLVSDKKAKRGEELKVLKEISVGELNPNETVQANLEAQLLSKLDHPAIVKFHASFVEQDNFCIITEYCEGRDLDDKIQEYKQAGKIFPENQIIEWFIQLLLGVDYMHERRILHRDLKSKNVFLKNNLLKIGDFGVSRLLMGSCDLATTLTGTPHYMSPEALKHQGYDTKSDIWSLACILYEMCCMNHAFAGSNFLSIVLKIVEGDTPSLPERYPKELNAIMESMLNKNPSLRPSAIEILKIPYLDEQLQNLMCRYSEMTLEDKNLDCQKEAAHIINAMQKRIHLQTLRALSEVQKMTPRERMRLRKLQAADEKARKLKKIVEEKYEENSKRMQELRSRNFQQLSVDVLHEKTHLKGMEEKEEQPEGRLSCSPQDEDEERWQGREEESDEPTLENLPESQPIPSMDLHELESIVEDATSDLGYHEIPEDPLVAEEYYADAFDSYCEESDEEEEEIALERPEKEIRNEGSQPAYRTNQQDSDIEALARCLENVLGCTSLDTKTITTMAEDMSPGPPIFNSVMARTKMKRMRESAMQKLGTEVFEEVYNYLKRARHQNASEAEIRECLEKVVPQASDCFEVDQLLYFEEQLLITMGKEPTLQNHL

PAK1 = PAK1 (Homo sapiens, UniProt Q13153); test: biochemical; conditions: read-out: %Ctrl @ 2000nM
CK2 in 786-O cells [4] = test system: CK2 in 786-O cells
LZK = LZK (Homo sapiens, UniProt O43283); test: biochemical; conditions: read-out: %Ctrl @ 2000nM
[5] = biological target: ABL1(Q252H)-nonphosphorylated (Homo sapiens, UniProt P00519, Q252H); test: biochemical; conditions: read-out: %Ctrl @ 2000nM
PRKR = PRKR (Homo sapiens, UniProt P19525); test: biochemical; conditions: read-out: %Ctrl @ 2000nM
[6] = biological target: RPS6KA5(Kin.Dom.1-N-terminal) (Homo sapiens, UniProt O75582); test: biochemical; conditions: read-out: %Ctrl @ 2000nM
EPHA1 = EPHA1 (Homo sapiens, UniProt P21709); test: biochemical; conditions: read-out: %Ctrl @ 2000nM
Sequence of EPHA1 (P21709 26-976): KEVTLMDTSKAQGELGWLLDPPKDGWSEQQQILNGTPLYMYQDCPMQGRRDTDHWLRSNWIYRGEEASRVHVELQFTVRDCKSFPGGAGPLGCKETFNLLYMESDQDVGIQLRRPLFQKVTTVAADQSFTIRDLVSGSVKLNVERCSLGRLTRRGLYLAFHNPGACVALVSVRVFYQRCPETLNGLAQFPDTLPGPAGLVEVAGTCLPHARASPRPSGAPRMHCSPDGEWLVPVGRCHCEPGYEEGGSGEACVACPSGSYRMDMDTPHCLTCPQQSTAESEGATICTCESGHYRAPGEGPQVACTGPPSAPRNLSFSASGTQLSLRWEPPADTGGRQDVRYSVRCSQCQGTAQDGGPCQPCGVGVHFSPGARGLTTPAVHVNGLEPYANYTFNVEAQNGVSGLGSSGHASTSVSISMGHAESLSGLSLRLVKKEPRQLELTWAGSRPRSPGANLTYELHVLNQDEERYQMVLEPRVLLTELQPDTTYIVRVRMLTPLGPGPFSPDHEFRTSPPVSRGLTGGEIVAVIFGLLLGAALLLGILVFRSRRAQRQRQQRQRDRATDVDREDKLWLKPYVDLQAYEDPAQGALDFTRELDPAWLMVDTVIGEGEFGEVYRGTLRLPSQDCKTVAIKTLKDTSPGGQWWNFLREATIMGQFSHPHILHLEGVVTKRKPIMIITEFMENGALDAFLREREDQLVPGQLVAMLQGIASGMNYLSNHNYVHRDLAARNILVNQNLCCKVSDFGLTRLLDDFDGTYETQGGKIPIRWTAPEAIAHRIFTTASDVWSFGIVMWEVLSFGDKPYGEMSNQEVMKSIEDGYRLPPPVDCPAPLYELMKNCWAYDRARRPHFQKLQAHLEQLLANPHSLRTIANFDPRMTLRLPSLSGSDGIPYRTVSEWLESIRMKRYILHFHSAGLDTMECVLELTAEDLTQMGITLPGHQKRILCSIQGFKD

CDK5 = CDK5 (Homo sapiens, UniProt Q00535); test: biochemical; conditions: read-out: %Ctrl @ 2000nM
SIK2 = SIK2 (Homo sapiens, UniProt Q9H0K1); test: biochemical; conditions: read-out: %Ctrl @ 2000nM
DRAK2 = DRAK2 (Homo sapiens, UniProt O94768); test: biochemical; conditions: read-out: %Ctrl @ 2000nM
Sequence of DRAK2 (O94768 whole entry): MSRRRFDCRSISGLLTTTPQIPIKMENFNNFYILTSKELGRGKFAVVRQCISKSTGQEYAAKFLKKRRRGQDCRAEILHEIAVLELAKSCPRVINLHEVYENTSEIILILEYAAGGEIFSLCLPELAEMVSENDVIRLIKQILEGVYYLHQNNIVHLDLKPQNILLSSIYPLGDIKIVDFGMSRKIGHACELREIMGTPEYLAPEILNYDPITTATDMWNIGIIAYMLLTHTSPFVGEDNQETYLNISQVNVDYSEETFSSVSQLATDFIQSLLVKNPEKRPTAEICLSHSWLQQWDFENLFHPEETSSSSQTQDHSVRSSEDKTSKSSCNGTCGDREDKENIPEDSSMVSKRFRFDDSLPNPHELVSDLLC

PHKG2 = PHKG2 (Homo sapiens, UniProt P15735); test: biochemical; conditions: read-out: %Ctrl @ 2000nM
IKK-epsilon = IKK-epsilon (Homo sapiens, UniProt Q14164); test: biochemical; conditions: read-out: %Ctrl @ 2000nM
YANK3 = YANK3 (Homo sapiens, UniProt Q86UX6); test: biochemical; conditions: read-out: %Ctrl @ 2000nM
AURKA = AURKA (Homo sapiens, UniProt O14965); test: biochemical; conditions: read-out: %Ctrl @ 2000nM
BMPR1A = BMPR1A (Homo sapiens, UniProt P36894); test: biochemical; conditions: read-out: %Ctrl @ 2000nM
DCAMKL3 = DCAMKL3 (Homo sapiens, UniProt Q9C098); test: biochemical; conditions: read-out: %Ctrl @ 2000nM
CDKL2 = CDKL2 (Homo sapiens, UniProt Q92772); test: biochemical; conditions: read-out: %Ctrl @ 2000nM

For CC(C)COC(=O)c1[nH]c2ccc(F)cc2c1-c1cn(CC2CCN(CCNS(=O)(=O)c3ccc(CC(C)C)cc3)CC2)nn1 [AB668, isobutyl 5-fluoro-3-(1-((1-(2-((4-isobutylphenyl)sulfonamido)ethyl)piperidin-4-yl)methyl)-1H-1,2,3-triazol-4-yl)-1H-indole-2-carboxylate], the remaining activity at 2 µM (S6K1) was 89%, the IC50 (CK2 in 786-O cells [1]) was 340 ± 70 nM and the remaining activity at 2 µM (ROCK1) was 88%. It also gave a remaining activity at 2 µM (BMX) of 85%, a remaining activity at 2 µM (MTOR) of 92% and a remaining activity at 2 µM (EPHA7) of 93%. The “%Ctrl @ 2000nM” value (FLT3(ITD)) was 93%, the remaining activity at 2 µM (HCK) was 96% and the remaining activity at 2 µM (YSK1) was 82%. The remaining activity at 2 µM (CDKL1) was 86%, the remaining activity at 2 µM (CLK3) was 79% and the remaining activity at 2 µM (IRAK1) was 98%. For the same compound, the remaining activity at 2 µM (PYK2) was 95%, the remaining activity at 2 µM (MYO3A) was 96% and the remaining activity at 2 µM (SRPK3) was 100%. It also gave a remaining activity at 2 µM (ROS1) of 89%, a remaining activity at 2 µM (ZAK) of 100% and a remaining activity at 2 µM ([2]; read-out: %Ctrl @ 2000nM) of 43%. The inhibition at 2 µM ([2]; read-out: percentage inhibition) was > 50%, the remaining activity at 2 µM [3] was 73% and the remaining activity at 2 µM (TTK) was 85%. The remaining activity at 2 µM (AAK1) was 80%, the remaining activity at 2 µM (CDK4-cyclinD3) was 96% and the “proliferation, cell death and apoptosis” value (A375 cells) was “induced significant cell proliferation arrest associated with cell death and apoptosis”. For the same compound, the remaining activity at 2 µM (ABL2) was 94%, the remaining activity at 2 µM (FRK) was 70% and the remaining activity at 2 µM (NEK11) was 100%. For the same compound, the remaining activity at 2 µM (PAK1) was 99%, the “CK2 inhibition 8 h after inhibitor removal” value (CK2 in 786-O cells [4]) was “persisted” and the remaining activity at 2 µM (LZK) was 100%. For the same compound, the remaining activity at 2 µM [5] was 73%, the remaining activity at 2 µM (PRKR) was 75% and the remaining activity at 2 µM [6] was 95%. It also gave a remaining activity at 2 µM (EPHA1) of 99%, a remaining activity at 2 µM (CDK5) of 99% and a remaining activity at 2 µM (SIK2) of 100%. It also gave a remaining activity at 2 µM (DRAK2) of 100%, a remaining activity at 2 µM (PHKG2) of 88% and a remaining activity at 2 µM (IKK-epsilon) of 76%. For the same compound, the remaining activity at 2 µM (YANK3) was 92%, the remaining activity at 2 µM (AURKA) was 100% and the remaining activity at 2 µM (BMPR1A) was 77%. It also gave a remaining activity at 2 µM (DCAMKL3) of 91% and a remaining activity at 2 µM (CDKL2) of 84%.
